Data published in the NIST ThermoML archive (doi:10.1016/j.fluid.2006.05.032).
Numbers after ± are expanded uncertainties.

Test: xn = mol fraction of the nth substance listed
Details: Liquid, Vibrating tube method

Cc1ccccc1 [toluene] + CCCO
mass density [kg/m3]
Details	x2 = 0	x2 = 0.125	x2 = 0.25	x2 = 0.375	x2 = 0.5	x2 = 0.625	x2 = 0.75	x2 = 0.875
323.15 K, 35000 kPa	866 ± 1	859.3 ± 1	853.3 ± 1	847.1 ± 1	840.6 ± 1	833.4 ± 1	825.6 ± 1.1	816.4 ± 1.1
323.15 K, 40000 kPa	869.4 ± 1	862.8 ± 1	856.5 ± 1	850.3 ± 1	843.9 ± 1.1	836.7 ± 1.1	829 ± 1.1	819.8 ± 1.1
323.15 K, 45000 kPa	872.5 ± 1	865.9 ± 1	859.8 ± 1.1	853.6 ± 1.1	847.1 ± 1.1	840 ± 1.1	832.2 ± 1.1	822.9 ± 1.1
323.15 K, 50000 kPa	875.7 ± 1	869.2 ± 1.1	863 ± 1.1	856.8 ± 1.1	850.3 ± 1.1	843.1 ± 1.1	835.3 ± 1.1	826 ± 1.1
323.15 K, 55000 kPa	878.7 ± 1.1	872.2 ± 1.1	866 ± 1.1	859.8 ± 1.1	853.3 ± 1.1	846.1 ± 1.1	838.3 ± 1.1	829 ± 1.1
323.15 K, 60000 kPa	881.7 ± 1.1	875.1 ± 1.1	869 ± 1.1	862.7 ± 1.1	856.2 ± 1.1	848.9 ± 1.1	841.1 ± 1.1	831.9 ± 1.1
323.15 K, 65000 kPa	884.6 ± 1.1	878.1 ± 1.1	871.9 ± 1.1	865.6 ± 1.1	859.1 ± 1.1	851.8 ± 1.1	844 ± 1.1	834.6 ± 1.1
333.15 K, 100 kPa	828.8 ± 1	822 ± 1	815.6 ± 1	809.5 ± 1	803.2 ± 1	796.3 ± 1	788.7 ± 1	779.8 ± 1
333.15 K, 5000 kPa	833.5 ± 1	826.8 ± 1	820.5 ± 1	814.3 ± 1	808 ± 1	801.1 ± 1	793.4 ± 1	784.4 ± 1
333.15 K, 10000 kPa	838.2 ± 1	831.4 ± 1	825 ± 1	818.9 ± 1	812.6 ± 1	805.8 ± 1	798.1 ± 1	789.1 ± 1
333.15 K, 15000 kPa	842.6 ± 1	835.7 ± 1	829.4 ± 1	823.3 ± 1	817 ± 1	810.1 ± 1	802.4 ± 1	793.4 ± 1
333.15 K, 20000 kPa	846.6 ± 1	839.8 ± 1	833.6 ± 1	827.4 ± 1	821.1 ± 1	814.2 ± 1	806.6 ± 1	797.5 ± 1
333.15 K, 25000 kPa	850.5 ± 1	843.8 ± 1	837.6 ± 1	831.4 ± 1	825 ± 1	818.2 ± 1	810.5 ± 1	801.4 ± 1
333.15 K, 30000 kPa	854.3 ± 1	847.6 ± 1	841.4 ± 1	835.2 ± 1	828.8 ± 1	821.9 ± 1	814.1 ± 1	805 ± 1.1
333.15 K, 35000 kPa	857.9 ± 1	851.3 ± 1	845 ± 1	838.9 ± 1	832.5 ± 1.1	825.6 ± 1.1	817.8 ± 1.1	808.6 ± 1.1
333.15 K, 40000 kPa	861.4 ± 1	854.8 ± 1	848.6 ± 1.1	842.4 ± 1.1	836 ± 1.1	829.1 ± 1.1	821.2 ± 1.1	812 ± 1.1
333.15 K, 45000 kPa	864.8 ± 1	858.2 ± 1.1	852 ± 1.1	845.8 ± 1.1	839.4 ± 1.1	832.4 ± 1.1	824.6 ± 1.1	815.4 ± 1.1
333.15 K, 50000 kPa	868.1 ± 1.1	861.5 ± 1.1	855.2 ± 1.1	849 ± 1.1	842.7 ± 1.1	835.6 ± 1.1	827.8 ± 1.1	818.6 ± 1.1
333.15 K, 55000 kPa	871.4 ± 1.1	864.6 ± 1.1	858.4 ± 1.1	852.2 ± 1.1	845.8 ± 1.1	838.8 ± 1.1	831 ± 1.1	821.9 ± 1.1
333.15 K, 60000 kPa	874.5 ± 1.1	867.8 ± 1.1	861.4 ± 1.1	855.3 ± 1.1	848.9 ± 1.1	841.8 ± 1.1	834 ± 1.1	824.8 ± 1.1
333.15 K, 65000 kPa	877.5 ± 1.1	870.7 ± 1.1	864.5 ± 1.1	858.3 ± 1.1	851.9 ± 1.1	844.8 ± 1.1	836.9 ± 1.1	827.7 ± 1.1
343.15 K, 100 kPa	819.4 ± 1	812.2 ± 1	805.5 ± 1	799.4 ± 1	793.3 ± 1	786.5 ± 1	779.1 ± 1	770.7 ± 1
343.15 K, 5000 kPa	824.5 ± 1	817.3 ± 1	810.8 ± 1	804.6 ± 1	798.4 ± 1	791.7 ± 1	784.2 ± 1	775.8 ± 1
343.15 K, 10000 kPa	829.3 ± 1	822.3 ± 1	815.8 ± 1	809.6 ± 1	803.4 ± 1	796.6 ± 1	789.1 ± 1	780.6 ± 1
343.15 K, 15000 kPa	833.9 ± 1	826.9 ± 1	820.4 ± 1	814.3 ± 1	808.1 ± 1	801.3 ± 1	793.8 ± 1	785.1 ± 1
343.15 K, 20000 kPa	838.1 ± 1	831.3 ± 1	824.9 ± 1	818.7 ± 1	812.4 ± 1	805.7 ± 1	798.1 ± 1	789.5 ± 1
343.15 K, 25000 kPa	842.3 ± 1	835.5 ± 1	829.1 ± 1	822.9 ± 1	816.6 ± 1	809.8 ± 1	802.2 ± 1	793.5 ± 1
343.15 K, 30000 kPa	846.2 ± 1	839.5 ± 1	833.1 ± 1	827 ± 1	820.7 ± 1	813.9 ± 1	806.2 ± 1.1	797.4 ± 1.1
343.15 K, 35000 kPa	850.1 ± 1	843.2 ± 1	837 ± 1	830.7 ± 1.1	824.5 ± 1.1	817.6 ± 1.1	809.9 ± 1.1	801.1 ± 1.1
343.15 K, 40000 kPa	853.7 ± 1	847 ± 1.1	840.6 ± 1.1	834.4 ± 1.1	828.2 ± 1.1	821.4 ± 1.1	813.5 ± 1.1	804.6 ± 1.1
343.15 K, 45000 kPa	857.4 ± 1.1	850.4 ± 1.1	844.3 ± 1.1	838 ± 1.1	831.8 ± 1.1	824.9 ± 1.1	817.2 ± 1.1	808.2 ± 1.1
343.15 K, 50000 kPa	860.8 ± 1.1	853.9 ± 1.1	847.7 ± 1.1	841.4 ± 1.1	835.2 ± 1.1	828.2 ± 1.1	820.5 ± 1.1	811.4 ± 1.1
343.15 K, 55000 kPa	864.2 ± 1.1	857.1 ± 1.1	851 ± 1.1	844.8 ± 1.1	838.5 ± 1.1	831.5 ± 1.1	823.7 ± 1.1	814.7 ± 1.1
343.15 K, 60000 kPa	867.4 ± 1.1	860.5 ± 1.1	854.3 ± 1.1	848 ± 1.1	841.8 ± 1.1	834.8 ± 1.1	826.9 ± 1.1	817.7 ± 1.1
343.15 K, 65000 kPa	870.3 ± 1.1	863.6 ± 1.1	857.4 ± 1.1	851.1 ± 1.1	844.9 ± 1.1	837.8 ± 1.1	829.9 ± 1.1	820.7 ± 1.1
353.15 K, 100 kPa	809.7 ± 1	802.7 ± 1	795.9 ± 1	789.9 ± 1	783.8 ± 1	777 ± 1	769 ± 1	760.6 ± 1
353.15 K, 5000 kPa	815.1 ± 1	808 ± 1	801.4 ± 1	795.3 ± 1	789.2 ± 1	782.3 ± 1	774.4 ± 1	766.1 ± 1
353.15 K, 10000 kPa	820.3 ± 1	813.3 ± 1	806.7 ± 1	800.6 ± 1	794.6 ± 1	787.7 ± 1	779.6 ± 1	771.2 ± 1
353.15 K, 15000 kPa	825.3 ± 1	818.2 ± 1	811.6 ± 1	805.5 ± 1	799.5 ± 1	792.6 ± 1	784.6 ± 1	776.2 ± 1
353.15 K, 20000 kPa	829.9 ± 1	822.9 ± 1	816.3 ± 1	810.2 ± 1	804.2 ± 1	797.3 ± 1	789.1 ± 1	780.7 ± 1
353.15 K, 25000 kPa	834 ± 1	827.3 ± 1	820.8 ± 1	814.7 ± 1	808.7 ± 1	801.7 ± 1	793.5 ± 1	784.9 ± 1.1
353.15 K, 30000 kPa	838.2 ± 1	831.6 ± 1	825 ± 1	818.9 ± 1	813 ± 1.1	805.9 ± 1.1	797.6 ± 1.1	789 ± 1.1
353.15 K, 35000 kPa	842.2 ± 1	835.6 ± 1	829.1 ± 1.1	822.9 ± 1.1	817 ± 1.1	809.9 ± 1.1	801.6 ± 1.1	792.9 ± 1.1
353.15 K, 40000 kPa	846.1 ± 1.1	839.4 ± 1.1	833 ± 1.1	826.8 ± 1.1	820.8 ± 1.1	813.7 ± 1.1	805.4 ± 1.1	796.6 ± 1.1
353.15 K, 45000 kPa	849.8 ± 1.1	843.2 ± 1.1	836.7 ± 1.1	830.6 ± 1.1	824.6 ± 1.1	817.4 ± 1.1	809.1 ± 1.1	800.3 ± 1.1
353.15 K, 50000 kPa	853.3 ± 1.1	846.8 ± 1.1	840.3 ± 1.1	834.2 ± 1.1	828.1 ± 1.1	820.9 ± 1.1	812.5 ± 1.1	803.7 ± 1.1
353.15 K, 55000 kPa	856.7 ± 1.1	850.2 ± 1.1	843.8 ± 1.1	837.6 ± 1.1	831.6 ± 1.1	824.4 ± 1.1	815.8 ± 1.1	807 ± 1.1
353.15 K, 60000 kPa	860.1 ± 1.1	853.6 ± 1.1	847.2 ± 1.1	840.9 ± 1.1	835 ± 1.1	827.7 ± 1.1	818.9 ± 1.1	810.3 ± 1.1
353.15 K, 65000 kPa	863.5 ± 1.1	856.8 ± 1.1	850.4 ± 1.1	844.2 ± 1.1	838.3 ± 1.1	830.9 ± 1.1	822.5 ± 1.1	813.6 ± 1.1
